Data from patent US20090203646A1, “USE OF SODIUM NARCISTATIN FOR REDUCING INTERNAL ADHESIONS AND FIBROSIS” (Sun Health Research Institute, priority 2008, published 2009).
Entries after “also recorded” stand apart in the source; their conditions may differ.

Key:
[1] = system: splenic adhesions in the peritoneal cavity of rats with inflammatory arthritis; assay: Adhesion formation in rats with CFA-induced inflammatory arthritis (gross observation and adhesion scoring)
[2] = system: Spleen cells treated with the T-cell dependent mitogen, Con A; assay: Cytokine production by spleen cells treated with Con A (ELISA); assay type: cell-based, Lewis rats
Method: (§1) Immune Cell Cytokine Profile Assessment: A second experiment was completed to determined whether the adhesion reducing action of sodium narcistatin could be due to altering immune cell pro-inflammatory cytokine profiles known to […] adhesion formation. Spleen cells were cultured from young adult Lewis rats and treated in vitro with either Con A or LPS, T or B cell mitogen, respectively. Cultures with and without Con A or LPS were then treated with sodium narcistatin (0, 1, or 10 μg/ml). Cultures were incubated for 24 h at 37° C. After 24 h, supernatants were collected and cytokines were assessed using cytokine specific ELISA assays.
Cell Culture: Spleens were aseptically removed into Hank's balanced salt solution (HBSS). The spleens were placed in a stomacher bag and homogenized for 30 seconds. Spleen cells were triturated with a 10 ml pipette then washed with an additional 10 ml of HBSS and passed through a nylon mesh (Marsh Industries) to remove the extraneous connective tissue. The collected cells were centrifuged and resuspended in 5 ml of a NH4Cl hypotonic buffer for 3 min to lyse the red blood cells. The cells were washed 2× with 10 ml HBSS, centrifuged and resuspended into complete RPMI 1640 media supplemented with 5% fetal calf serum and 1% antibiotic/antimycotic.
Cultures for Cytokine Analysis: The prepared cells were counted using a hemocytometer, then brought to the concentration of 2×10^6 cells/ml. Two ml of the cell preparation were plated into 24 well plates (Falcon: Oxnard, Calif.), in the absence or presence of mitogen and in placed in an incubator 7% CO2, 37° C., for 24 h. After 24 h the culture supernatants were harvested and placed in the freezer at −70° C. until ELISA assay.
Cytokine Production: Duo sets for the detection of IL-1, IL-2, IL-4, IL-10, IFN-γ and TNF-α were obtained from R & D Systems and sandwich ELISAs were used to measure the amount cytokine released into the culture media. High binding microtiter 96-well plates were pre-coated with 100 μl of capture antibody in coating buffer for IL-1, IL-2, IL-4, IL-10, IFN-γ and TNF-α (0.15 M phosphate buffer, pH 7.4). The plates were sealed with plate film (Denville Scientific: South Plainfield, N.J.) and placed at 4° C. overnight. […]
(§2) After color development the plates were stopped with addition of 1N sulfuric acid. Unknown sample cytokine levels were determined through comparison with a standard curve present on each plate using an ELISA reader (Ceres 900 HDI: Bio Tek Instruments Incorporated: Winooski, Vt.). The concentrations were averaged for each treatment group at each time point, expressed as mean±SEM in ng/ml, and subjected to a one-way ANOVA (p<0.05) with Bonferroni post-hoc testing.

Rat fibroblast cells = assay: Fibroblast proliferation, tritiated thymidine assay; assay type: cell-based
Method: Fibroblast Proliferation Assessment: A third experiment was completed to determined whether the adhesion reducing action of sodium narcistatin could be due to direct effects of sodium narcistatin to prevent fibroblast proliferation.
Proliferation of rat fibroblasts were assessed using standard tritiated thymidine assays as follows. Rat fibroblast cells were cultured in the presence of narcistatin in concentrations ranging from 0 to 1 mg/ml. The assay was completed in triplicate. Cells were pulsed at 24 h with 0.5 μCi 3H-Thymidine/well and incubated for 48 h at 37° C. At 48 h plates were pulled from the incubator and cells were harvested using a Brandel Cell Harvester. Filters with collected cells were washed 12× with 200 μl of ice cold distilled water). Fiberglass filers containing cells were placed into scintillation vials with 4 ml of ScintSafe Econo2 scintillation fluid. Radioactivity measured using a scintillation counter

[3] = system: Spleen cells treated with the B-cell dependent mitogen, LPS; assay: Cytokine production by spleen cells treated with LPS (ELISA); assay type: cell-based, Lewis rats; details: 1 or 10 μg/ml, 24 h
Method: as §1
Cell Culture: Spleens were aseptically removed into Hank's balanced salt solution (HBSS). […]
Cultures for Cytokine Analysis: The prepared cells were counted using a hemocytometer, then brought to the concentration of 2×10^6 cells/ml. […]
as §2

arthritic rats = assay: Tolerability of the drug in arthritic rats; assay type: in vivo, Lewis rats
From the text: While there is variability in the severity of disease development between the batches of adjuvant, there is very little within batch variability. All animals in each experiment were challenged with the same preparation of adjuvant. All animals in this experiment that received CFA developed arthritis from this adjuvant preparation. The arthritis disease pathology that developed in both experiments was the same in onset and severity.

tumor growth = details: cited from earlier work
[4] = system: Encephalitozoan intestinalis; details: cited from earlier work
Japanese encephalitis = details: flavivvirus infection; cited from earlier work
[5] = system: intraperitoneal adhesion formation; details: after surgery; cited from earlier work

O=C1N[C@@H]2C(=C[C@H](O)[C@H]3OP(=O)(O)O[C@H]32)c2cc3c(c(O)c21)OCO3 [sodium narcistatin]
number of adhesions in the thoracic and abdominal cavities ([1]; arthritic animals, compared to untreated or vehicle-treated arthritic animals): dramatically reduced | splenic adhesion development in peritoneal cavity (FIG. 2) ([1]; arthritic rats, 4.5 mg/Kg intraperitoneal, day 10 to day 28 post-immunization): little to no adhesions | formation of dense fibrous connective tissue covering over the spleen and pancreas (adhesion scoring, FIG. 3) ([1]; arthritic rats, 4.5 mg/Kg intraperitoneal, blinded subjective scoring): largely prevented | production of IFN-γ ([2]; 1 or 10 μg/ml, 24 h): reduced | production of IL-1 ([2]; 1 or 10 μg/ml, 24 h): reduced | production of IL-2 ([2]; 1 or 10 μg/ml, 24 h): reduced | production of Con-A induced IFN-α ([2]; summary sentence b104): reduced | inhibition of fibroblast proliferation in vitro (FIG. 6) (Rat fibroblast cells; 0 to 1 mg/ml): potent inhibitor; also recorded: dose dependent | reduction of fibroblast proliferation (Rat fibroblast cells; at 0.001 mg/ml): 50% | fibroblast proliferation reduced to (Rat fibroblast cells; at 0.01 mg/ml): ~0% | production of IL-1 (IL-1β) [3]: reduced | production of TNF-α [3]: reduced | tolerability (arthritic rats; arthritic animals, 4.5 mg/Kg): tolerate the drug well | body weights, grooming, feeding and drinking behavior (arthritic rats; vehicle- versus narcistatin-treated arthritic rats): no differences

O=C1N[C@@H]2C(=C[C@H](O)[C@@H](O)[C@H]2O)c2cc3c(c(O)c21)OCO3 [Narciclasine, narciclasine]
anticancer properties (tumor growth): anticancer properties

O=C1N[C@H]2[C@H](O)[C@H](O)[C@@H](O)[C@H](O)[C@@H]2c2cc3c(c(O)c21)OCO3 [Pancratastatin]
potency in inhibiting tumor growth (tumor growth; relative to sodium narcistatin): more potent than sodium narcistatin | activity against the parasite [4]: activity | survival rate (Japanese encephalitis): up to 100%

O=C(c1ccccc1)c1ccc2n1CCC2C(=O)O (centres unmarked) [Ketorolac, reference compound]
adhesion formation/reformation [5]: reduces adhesion formation

B1: IL-10: anti-inflammatory cytokine (protein, UniProt P22301 19-178, looked up)
Interleukin-10: SPGQGTQSENSCTHFPGNLPNMLRDLRDAFSRVKTFFQMKDQLDNLLLKESLLEDFKGYLGCQALSEMIQFYLEEVMPQAENQDPDIKAHVNSLGENLKTLRLRLRRCHRFLPCENKSKAVEQVKNAFNKLQEKGIYKAMSEFDIFINYIEAYMTMKIRN
adhesion formation/reformation [5]: reduces adhesions; also recorded: limited
